Data: ChEMBL document CHEMBL4811255, “Antibacterial and Antifungal Polyketides from the Fungus Aspergillus unguis PSU-MF16” (J Nat Prod, 2021)
Values after ≈ are worked out from the molar mass of the structure shown. Active and inactive are the calls of the source. The rule behind the calls is not given here.

Legend:
[1] = test system: Candida albicans; assay: Antifungal activity against Candida albicans NCPF 90028 assessed as fungal growth inhibition incubated for 24 to 48 hrs by CLSI protocol based agar microdilution method; assay type: functional; conditions: time 24-48 hrs
[2] = test system: Nannizzia gypsea; assay: Antifungal activity against Microsporum gypseum assessed as fungal growth inhibition by CLSI protocol based assay; assay type: functional
[3] = test system: Vero; assay: Cytotoxicity against African green monkey Vero cells incubated for 24 hrs by MTT assay; assay type: cell-based; conditions: Chlorocebus sabaeus
[4] = test system: Staphylococcus aureus; assay: Antibacterial activity against Staphylococcus aureus ATCC 25923 assessed as bacterial growth inhibition by CLSI protocol based assay; assay type: functional
[5] = test system: Cryptococcus neoformans; assay: Antifungal activity against Cryptococcus neoformans ATCC 90113 assessed as fungal growth inhibition incubated for 24 to 48 hrs by CLSI protocol based agar microdilution method; assay type: functional; conditions: time 24-48 hrs
[6] = test system: Vero; assay: Cytotoxicity against African green monkey Vero cells by colorimetric assay; assay type: cell-based; conditions: Chlorocebus sabaeus
[7] = test system: Staphylococcus aureus; assay: Antibacterial activity against methicillin-resistant Staphylococcus aureus assessed as bacterial growth inhibition incubated for 18 hrs by CLSI protocol based agar microdilution method; assay type: functional
[8] = test system: Staphylococcus aureus; assay: Antibacterial activity against methicillin-resistant Staphylococcus aureus assessed as bacterial growth inhibition by CLSI protocol based assay; assay type: functional
[9] = test system: Candida albicans; assay: Antifungal activity against Candida albicans NCPF 90028 assessed as fungal growth inhibition by CLSI protocol based assay; assay type: functional
[10] = test system: Cryptococcus neoformans; assay: Antifungal activity against Cryptococcus neoformans ATCC 90113 assessed as fungal growth inhibition by CLSI protocol based assay; assay type: functional
[11] = test system: Nannizzia gypsea; assay: Antifungal activity against Microsporum gypseum assessed as fungal growth inhibition incubated for 4 days by CLSI protocol based agar microdilution method; assay type: functional; conditions: 96 h, time 4 day
[12] = test system: Nannizzia gypsea; assay: Antifungal activity against Microsporum gypseum assessed as fungal growth inhibition at 50 ug/ml by CLSI protocol based assay; assay type: functional, organism-based; conditions: dose 50.0 µg/ml
[13] = test system: Candida albicans; assay: Antifungal activity against Candida albicans NCPF 90028 assessed as fungal growth inhibition at 50 ug/ml by CLSI protocol based assay; assay type: functional, organism-based; conditions: dose 50.0 µg/ml
[14] = test system: Staphylococcus aureus; assay: Antibacterial activity against Staphylococcus aureus ATCC 25923 assessed as bacterial growth inhibition incubated for 18 hrs by CLSI protocol based agar microdilution method; assay type: functional
[15] = test system: Staphylococcus aureus; assay: Antibacterial activity against methicillin-resistant Staphylococcus aureus assessed as bacterial growth inhibition at 50 ug/ml by CLSI protocol based assay; assay type: functional, organism-based; conditions: dose 50.0 µg/ml
[16] = test system: Vero; assay: Cytotoxicity against African green monkey Vero cells at 50 ug/ml incubated for 24 hrs by MTT assay; assay type: cell-based; conditions: chlorocebus sabaeus, dose 50 µg/ml
[17] = test system: Staphylococcus aureus; assay: Antibacterial activity against Staphylococcus aureus ATCC 25923 assessed as bacterial growth inhibition at 50 ug/ml by CLSI protocol based assay; assay type: functional, organism-based; conditions: dose 50.0 µg/ml

SMILES	MIC [1] [µg/mL]	MIC [2] [µg/mL]	IC50 [3] [µg/mL]	MIC [4] [µg/mL]	MIC [5] [µg/mL]	IC50 [6] [µg/mL]	MIC [7] [µg/mL]	MIC [8] [µg/mL]	MIC [9] [µg/mL]	MIC [10] [µg/mL]	MIC [11] [µg/mL]	Activity [12]	Activity [13]	MIC [14] [µg/mL]	Activity [15]	Activity [16]	Activity [17]
C/C=C(\C)c1cc(O)c(C)c2c1Oc1cc(O)c(Cl)c(C)c1C(=O)O2	0.25 (≈ 0.693 µM)	8 (≈ 22.2 µM)	86 (≈ 238 µM)	8 (≈ 22.2 µM)	0.25 (≈ 0.693 µM)	4.6 (≈ 12.7 µM)	0.5 (≈ 1.39 µM)	8 (≈ 22.2 µM)	8 (≈ 22.2 µM)	32 (≈ 88.7 µM)	1 (≈ 2.77 µM)	–	–	–	–	–	–
Cc1c2ccncc2c(C)c2c1[nH]c1ccccc12 [ELLIPTECINE]	–	–	–	–	–	4 (≈ 16.2 µM)	–	–	–	–	–	–	–	–	–	–	–
C=C(c1cc(O)c(C)c2c1Oc1cc(O)cc(C)c1C(=O)O2)[C@H](C)O	–	–	–	–	0.5 (≈ 1.46 µM)	–	–	–	–	–	0.5 (≈ 1.46 µM)	–	–	–	–	–	–
C/C=C(\C)c1cc(OC(=O)c2c(C)cc(O)cc2O)c(C)c(O)c1C(=O)O	0.25 (≈ 0.671 µM)	–	110 (≈ 295 µM)	128 (≈ 344 µM)	0.25 (≈ 0.671 µM)	4.6 (≈ 12.4 µM)	0.5 (≈ 1.34 µM)	128 (≈ 344 µM)	–	32 (≈ 85.9 µM)	1 (≈ 2.69 µM)	inactive	inactive	0.25 (≈ 0.671 µM)	–	–	–
Clc1ccccc1C(c1ccccc1)(c1ccccc1)n1ccnc1 [CLOTRIMAZOLE]	–	–	–	–	–	–	–	–	–	–	2 (≈ 5.8 µM)	–	–	–	–	–	–
C/C=C(\C)c1cc(O)c(C)c2c1Oc1cc(O)cc(C)c1C(=O)O2	–	–	–	128 (≈ 392 µM)	0.25 (≈ 0.766 µM)	–	–	–	–	200 (≈ 613 µM)	1 (≈ 3.06 µM)	inactive	inactive	–	inactive	Non-Toxic	–
COC(=O)c1c(C)cc(O)cc1O [METHYL ORSELLINATE]	0.25 (≈ 1.37 µM)	–	–	–	0.25 (≈ 1.37 µM)	4.6 (≈ 25.3 µM)	0.5 (≈ 2.74 µM)	–	–	200 (≈ 1100 µM)	1 (≈ 5.49 µM)	inactive	inactive	0.25 (≈ 1.37 µM)	inactive	Non-Toxic	inactive
C/C=C(\C)c1c(Cl)c(OC)c(C)c2c1Oc1c(Cl)c(O)c(Cl)c(C)c1C(=O)O2	0.25 (≈ 0.563 µM)	–	57 (≈ 128 µM)	4 (≈ 9.01 µM)	0.25 (≈ 0.563 µM)	4.6 (≈ 10.4 µM)	0.5 (≈ 1.13 µM)	8 (≈ 18 µM)	–	16 (≈ 36.1 µM)	1 (≈ 2.25 µM)	inactive	inactive	0.25 (≈ 0.563 µM)	–	–	–
C/C=C(\C)c1c(Cl)c(O)c(C)c2c1Oc1cc(O)c(Cl)c(C)c1C(=O)O2	0.25 (≈ 0.633 µM)	–	8.9 (≈ 22.5 µM)	2 (≈ 5.06 µM)	0.25 (≈ 0.633 µM)	4.6 (≈ 11.6 µM)	0.5 (≈ 1.27 µM)	1 (≈ 2.53 µM)	200 (≈ 506 µM)	128 (≈ 324 µM)	1 (≈ 2.53 µM)	–	–	0.25 (≈ 0.633 µM)	–	–	–
C/C=C(\C)c1cc(O)c(C)c(O)c1C(=O)Oc1cc(/C(C)=C/C)c(C(=O)O)c(O)c1C [AGONODEPSIDE B]	–	–	–	–	0.5 (≈ 1.17 µM)	–	0.5 (≈ 1.17 µM)	16 (≈ 37.5 µM)	–	–	0.5 (≈ 1.17 µM)	–	–	–	–	–	–
C[C@@H]1[C@H](O)[C@@H](C)/C=C/C=C/C=C/C=C/C=C/C=C/C=C/[C@H](O[C@@H]2O[C@H](C)[C@@H](O)[C@H](N)[C@@H]2O)C[C@@H]2O[C@](O)(C[C@@H](O)C[C@@H](O)[C@H](O)CC[C@@H](O)C[C@@H](O)CC(=O)O[C@H]1C)C[C@H](O)[C@H]2C(=O)O [AMPHOTERICIN B]	0.5 (≈ 0.541 µM)	–	–	–	2 (≈ 2.16 µM)	–	–	–	–	–	–	–	–	–	–	–	–
C/C=C(\C)c1cc(O)c(C)c2c1C(=O)Oc1c(C)c(O)c(Cl)c(/C(C)=C/C)c1O2	0.25 (≈ 0.603 µM)	–	16 (≈ 38.6 µM)	0.5 (≈ 1.21 µM)	0.25 (≈ 0.603 µM)	4.6 (≈ 11.1 µM)	0.5 (≈ 1.21 µM)	0.5 (≈ 1.21 µM)	–	0.5 (≈ 1.21 µM)	1 (≈ 2.41 µM)	–	inactive	0.25 (≈ 0.603 µM)	–	–	–
C/C=C(\C)c1cc(O)c(C)c2c1Oc1c(C)c(O)cc(/C(C)=C/C)c1C(=O)O2	0.25 (≈ 0.657 µM)	–	17 (≈ 44.7 µM)	2 (≈ 5.26 µM)	0.25 (≈ 0.657 µM)	–	0.5 (≈ 1.31 µM)	1 (≈ 2.63 µM)	–	1 (≈ 2.63 µM)	1 (≈ 2.63 µM)	–	inactive	0.25 (≈ 0.657 µM)	–	–	–
C/C=C(\C)c1cc(O)c(C)c(OC(=O)c2c(/C(C)=C/C)cc(O)c(C)c2O)c1 [AGONODEPSIDE A]	–	–	–	–	0.25 (≈ 0.654 µM)	–	0.25 (≈ 0.654 µM)	2 (≈ 5.23 µM)	–	–	–	–	–	0.25 (≈ 0.654 µM)	–	–	–
C/C=C(\C)c1c(Cl)c(O)c(C)c2c1Oc1c(Cl)c(O)c(Cl)c(C)c1C(=O)O2	0.25 (≈ 0.582 µM)	–	110 (≈ 256 µM)	2 (≈ 4.65 µM)	0.25 (≈ 0.582 µM)	4.6 (≈ 10.7 µM)	0.5 (≈ 1.16 µM)	2 (≈ 4.65 µM)	–	8 (≈ 18.6 µM)	1 (≈ 2.33 µM)	inactive	inactive	0.25 (≈ 0.582 µM)	–	–	–
C/C=C(\C)c1cc(O)c(C)c2c1C(=O)Oc1c(C)c(O)c(C(=O)O)c(/C(C)=C/C)c1O2	0.25 (≈ 0.589 µM)	200 (≈ 471 µM)	–	–	0.25 (≈ 0.589 µM)	4.6 (≈ 10.8 µM)	0.5 (≈ 1.18 µM)	64 (≈ 151 µM)	–	64 (≈ 151 µM)	1 (≈ 2.36 µM)	inactive	inactive	0.25 (≈ 0.589 µM)	–	Non-Toxic	–
C/C=C(\C)c1c2c(c(C)c(O)c1C(=O)O)OC(=O)c1c(C)cc(O)cc1O2	0.25 (≈ 0.675 µM)	–	–	–	0.25 (≈ 0.675 µM)	4.6 (≈ 12.4 µM)	0.5 (≈ 1.35 µM)	–	–	200 (≈ 540 µM)	1 (≈ 2.7 µM)	inactive	inactive	0.25 (≈ 0.675 µM)	inactive	Non-Toxic	inactive
C/C=C(\C)c1cc(O)c(C)c(O)c1C(=O)Oc1cc2c(c(O)c1C)C(=O)O[C@@]2(C)CC	0.25 (≈ 0.586 µM)	–	45 (≈ 106 µM)	200 (≈ 469 µM)	0.25 (≈ 0.586 µM)	4.6 (≈ 10.8 µM)	0.5 (≈ 1.17 µM)	200 (≈ 469 µM)	–	200 (≈ 469 µM)	1 (≈ 2.34 µM)	inactive	inactive	0.25 (≈ 0.586 µM)	–	–	–
